Measured values taken from article PMC9492777, “Reaction-based fluorogenic probes for detecting protein cysteine oxidation in living cells” (Nature Communications, 2022).

Target: EGFR (epidermal growth factor receptor) (Homo sapiens, UniProt P00533)
Test: labelling in transfected HeLa cells, immunoprecipitation, in-gel fluorescence
Type: cell-based
Conditions: covalent, at Cys797 sulfenic acid; 50 uM probe, 500 uM H2O2, 1 h, 37 °C

Chain of EGFR (epidermal growth factor receptor) (P00533 25-1210): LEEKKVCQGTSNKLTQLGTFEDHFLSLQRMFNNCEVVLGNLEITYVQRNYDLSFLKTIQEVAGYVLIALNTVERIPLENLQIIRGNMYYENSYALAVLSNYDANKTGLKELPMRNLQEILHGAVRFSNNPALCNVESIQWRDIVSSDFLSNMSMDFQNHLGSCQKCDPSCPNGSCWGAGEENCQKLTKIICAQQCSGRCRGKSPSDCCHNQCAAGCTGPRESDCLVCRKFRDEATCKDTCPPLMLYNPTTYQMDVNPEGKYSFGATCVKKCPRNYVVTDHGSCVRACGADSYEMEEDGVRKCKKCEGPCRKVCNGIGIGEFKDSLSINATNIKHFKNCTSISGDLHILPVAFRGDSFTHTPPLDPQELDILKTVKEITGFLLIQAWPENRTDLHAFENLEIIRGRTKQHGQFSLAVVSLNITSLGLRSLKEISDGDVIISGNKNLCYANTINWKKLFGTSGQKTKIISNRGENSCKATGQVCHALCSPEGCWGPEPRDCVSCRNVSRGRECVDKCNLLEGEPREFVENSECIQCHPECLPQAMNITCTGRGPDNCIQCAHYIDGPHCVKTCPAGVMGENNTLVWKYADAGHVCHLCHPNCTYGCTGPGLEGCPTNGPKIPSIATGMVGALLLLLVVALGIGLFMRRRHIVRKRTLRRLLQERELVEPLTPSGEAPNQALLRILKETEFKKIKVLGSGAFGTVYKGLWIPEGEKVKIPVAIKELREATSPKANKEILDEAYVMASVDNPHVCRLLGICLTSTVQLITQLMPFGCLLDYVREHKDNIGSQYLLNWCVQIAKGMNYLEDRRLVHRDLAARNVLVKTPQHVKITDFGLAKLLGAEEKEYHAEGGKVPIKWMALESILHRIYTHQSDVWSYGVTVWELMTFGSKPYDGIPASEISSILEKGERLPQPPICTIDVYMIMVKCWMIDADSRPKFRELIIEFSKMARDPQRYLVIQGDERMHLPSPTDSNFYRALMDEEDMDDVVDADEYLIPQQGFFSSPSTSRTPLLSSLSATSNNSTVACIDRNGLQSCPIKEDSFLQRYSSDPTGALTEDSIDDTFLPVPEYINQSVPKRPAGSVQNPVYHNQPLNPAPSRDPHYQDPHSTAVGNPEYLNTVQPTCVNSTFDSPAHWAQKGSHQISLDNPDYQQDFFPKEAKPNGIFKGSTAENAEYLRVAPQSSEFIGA

| SMILES | labelling in transfected HeLa cells, immunoprecipitation, in-gel fluorescence |
| --- | --- |
| Nc1c(F)cc2c3c(cccc13)C(=O)CS2(=O)=O [compound 7, CysOx1] | Wild-type EGFR exhibited detectable fluorescence signal from CysOx1 or CysOx2 |
| O=C1CS(=O)(=O)c2cc(F)c(N3CCC3)c3cccc1c23 [compound 8, CysOx2] | Wild-type EGFR exhibited detectable fluorescence signal from CysOx1 or CysOx2 |
